Data on five compounds can be found in US12589101B2, “Cyclodextrin protein drug conjugates” (Regeneron Pharmaceuticals, Inc., priority 2017, dated 2026).

Molecules are shown by their SMILES. ≈ marks a conversion by molar mass, not a printed value. Like-named read-outs stand apart in the source and are kept apart here. Square brackets hold non-standard residues; d marks the D form. Peptide text beside a SMILES is read from it. * marks the point of attachment. Dolaproine = CO[C@@H]([C@@H]1CCCN1)[C@@H](C)C(=O)O; Dil = CC[C@H](C)[C@H](NC)[C@@H](CC(=O)O)OC; X1 = C[C@@H](N*)[C@@H](O)c1ccccc1; NMeV = CN[C@H](C(=O)O)C(C)C

Data set [1] concerns SKBR3 cells. The data set is described as follows: SKBR3 cytotoxicity assay (CellTiter-Glo). The format is cell-based. As for the experimental part:
To assess the comparability of ADCs with and without CDs containing cytotoxic payloads, a cytotoxicity assay used SKBR3 cells. SKBR3 cells have been commonly used to assess aHer2 ADC activity. An aPRLR ADC has been used as a control mAb ADC in the SKBR3 cytotoxicity assay. For the assay, in vitro cytotoxicity of anti-Her2 ADCs or PRLR ADCs were evaluated using the CellTiter-Glo Assay Kit (Promega, Cat #G7573), in which the quantity of ATP present is used to determine the number of viable cells in culture. For the assay, SKBR3 cells were seeded at 6000 cells/well on Nunclon white 96 well plates in complete growth medium and grown overnight at 37° C. in 5% CO2. For cell viability curves, 1:4 serially diluted ADCs or free payload MMAE were added to the cells at concentrations starting at 100 nM including a no treatment control and were then incubated for 5 days. After the 5-day incubation, cells were incubated at room temperature with 100 μL of CellTiter-Glo reagents for 5 minutes. Relative luminescence units (RLU) were determined on a Victor plate reader (PerkinElmer). The IC50 values were determined from a four-parameter logistic equation over a 10-point response curve (GraphPad Prism). All curves and EC50 values were corrected for payload equivalents. All IC50s are expressed in nM concentration and percentage of cells killed (% kill) is reported for the highest concentration tested.
(ATP-based viability assays read luminescence as a measure of living cells.)

A short description of data set [2]: Solubility of linker-payloads (LC-MS standard curve, saturated solution). It counts as physicochemical. As for the experimental part:
The following test assays the solubility of the linker-payloads with a cyclodextrin moiety and the linker-payloads without a cyclodextrin moiety.
The test compounds were dissolved in DMSO to build a standard curve using LC-MS method A or B. The test sample was dissolved in water and sonicated for 10 minutes, and then centrifuged. The upper clear solution was analyzed using the same method A or B and the solubility was calculated based on its peak area.
Detailed test procedures were as follows: • 1. […] 0.05 mg of compound was suspended in water (1 mL) and sonicated for 10 minutes. After centrifugation, the clear solution above was collected to provide the saturated sample solution. • 3. All the standard solutions A, B, C, D, E and sample solution were analyzed by LCMS (using the same method and same injection volume) to obtain the peak areas. • 4. Calculate the standard curve according to the data of A-D (X=concentration, Y=peak areas). • 5. Calculate to obtain the concentration of saturated sample solution according to the functions obtained above.

Data set [3] deals with Cathepsin B (Homo sapiens, UniProt P07858). Nature of the data set: Cathepsin B cleavage rate of linker-payloads (Example 66). The format is biochemical. The conditions noted are these: for capB / CapB (%): Cathepsin B cleavage rate; for capB: Table 8A; for CapB (%): pH 5.0, 37° C. How it is done: Step 1: Preparation of Cathepsin B buffer: 0.1 M NaOAc/0.01M DTT (pH5.0) Dissolve 8.3 g/L NaOAc, 1.54 g/L DTT in deionized water. Adjust pH to 5.0 with HCl/sodium hydroxide.
Step 2: Test Cleavage Rate
• 1. Prepare 25 μM of testing sample: To a 2-mL-tube was added 0.5 mg of testing sample, followed by the addition of 0.2 mL of DMSO. The solution was added dropwise into 0.8 mL of 0.1 M NaOAc/0.01 M DTT buffer. The obtained mixtures were sonicated for 5 minutes to obtain clear and colorless solutions. The pH value of the solution was around 5 according to pH test strip. • 2. Preheat assay buffer: 0.1 M NaOAc/0.01 M DTT (pH 5.0) • 3. Spiking solutions for test compounds: 25 μM Spiking solutions for test compounds: Add 2 μL of 5 mM stock solution into 398 μL of 0.1 M NaOAc/0.01 M DTT buffer (pH 5.0). • 4. Prepare 0.47 μg/μL Cathepsin B in 50 mM NaOAc/1 mM EDTA (pH 5.0). Put on ice. • 5. Without CA074 samples: Add 4 μL of 0.47 μg/μL Cathepsin B into 196 μL of 25 μM Spiking solutions (from step 2), incubate the tubes at 37° C. • 6. With CA074 samples: Add 4 μL of 0.47 μg/μL Cathepsin B with 4 μL of 10 mM Inhibitor (CA074) into 196 μL of 25 μM Spiking solutions (from step 2), incubate the tubes. • 7. After quenching, shake the plate and centrifuge them at 14000 rpm. • 8. Transfer 50 μL of the supernatant from each well into a 96-well sample plate containing 50 μL of ultra pure water (Millipore, ZMQS50F01) for LC/MS analysis. Step 3: Test reference compounds: • 9. Preheat assay buffer: 100 mM Na/K phosphate, pH 6.0, with 1.33 mM EDTA and 2 mM DTT. • 10. Prepare 0.024 μg/μL Cathepsin B: Add 1 μL of 0.47 μg/μL Cathepsin B stock into 19 μL of assay buffer (from step 11). • 11. Add 2 μL of 0.024 μg/μL Cathepsin B (from step 12) to a opaque 96-well plate. • 12. Add 96 μL of assay buffer to each sample. • 13. Add 2 μL of the 10 mM substrate Z-RR-MNA (200 μM final concentration). • 14. For negative control (With inhibitor), add 2 μL of 10 mM Inhibitor (CA074): Immediately read the samples in a kinetic mode at excitation of 340 nm/emission of 425 nm (Read the plate every 30 Second for 3 min). Step 4: Stability of Cathepsin B in incubation samples: • 15. Take 5 μL of incubation samples into 93 μL of assay buffer (from step 11), and then add 2 μL of 10 mM substrate (Z-RR-MNA). • 16. Incubate the samples at 37° C. for 2 min. • 17. Read the samples at excitation of 340 nm/emission of 425 nm.

For data set [4], the target named is T1, Human liver Cathepsin B (Homo sapiens, UniProt P07858).
T1 construct: Human liver Cathepsin B (Athens Research & Technology, Cat #16-12-030102); purchased Athens Research & Technology 16-12-030102; host or cells: human liver
The data set is described as follows: Cathepsin B cleavage assay, payload released (Example 73). The conditions noted are these: 37° C., 50 μM substrate, pH 5. It counts as biochemical. As for the experimental part:
To determine the effect on the cleavage efficiency on a steroid or LXR agonist payload when a cyclodextrin moiety was added in the linker, a Cathepsin B cleavage assay was performed. For the assay, the linker-payload stock solution (10 mM of linker-payload in DMSO) was added into a solution of 100 mM NaOAc, 10 mM dithiothreitol, at pH5 to obtain a 50 μM substrate solution. Human liver Cathepsin B (Athens Research & Technology, Cat #16-12-030102) in 50 mM NaOAc, 1 mM EDTA, at pH 5, was added to the substrate solution. The Cathepsin B and substrate solution was mixed with and without 10 mM of a Cathepsin B inhibitor (CA074; APE Bio, Cat #A1926), and incubated at 37° C. for 4 hours. Following the 4 hour incubation, acetic acid and then acetonitrile were added to stop the reaction. The quenched samples then underwent centrifugation at 14,000 rpm. Aliquots of the resultant supernatants were then diluted with equal volume of water and analyzed by LC/MS to determine the amount of payload released. The stability and activity of Cathepsin B was confirmed by incubating with 200 μM fluorogenic substrate for Cathepsin B (Santa Cruz Biotechnology, Cat #207975) (fluorescence at excitation of 340 nm/emission of 425 nm).

Where [5] appears, read: water, thermodynamic from solid, Table 8A, read-out: Solubility.
The mark [6] stands for this setting: water, thermodynamic from solid, aqueous, read-out: Aq. Solubility.
The mark [7] stands for this setting: water, thermodynamic from solid, Aq. Solubility (mg/mL).
Setting [8] is: water, thermodynamic from solid, Solubility.

The term EC50 denotes the concentration giving half of the maximal effect. A low value points to higher potency in that assay. Consider `CC[C@H](C)[C@@H]([C@@H](CC(=O)N1CCC[C@H]1[C@H](OC)[C@@H](C)C(=O)N[C@H](C)[C@@H](O)c1ccccc1)OC)N(C)C(=O)[C@@H](NC(=O)[C@@H](NC)C(C)C)C(C)C` [MMAE] (H-[NMeV]V[Dil][Dolaproine]-X1), for which the 50% effective concentration (EC50) in data set [1] (Homo sapiens, SK-BR-3, 120 h) was 0.19 nM. Moreover, the “% kill” value in data set [1] (SKBR3 cells, 5 days, highest concentration tested) is given as at least 90%.

For orientation: solubility means the concentration that dissolves in the medium under given conditions. Take `CCCC1O[C@@H]2C[C@H]3[C@@H]4C[C@H](F)C5=CC(=O)C=C[C@]5(C)[C@@]4(F)[C@@H](O)C[C@]3(C)[C@]2(C(=O)CNC(=O)OCc2ccc(NC(=O)[C@H](CCCNC(N)=O)NC(=O)[C@@H](NC(=O)[C@@H](CCCCNC(=O)COC3CCCCCc4c3nnn4CC3OC4OC5C(CO)OC(OC6C(CO)OC(OC7C(CO)OC(OC8C(CO)OC(OC9C(CO)OC(OC3C(O)C4O)C(O)C9O)C(O)C8O)C(O)C7O)C(O)C6O)C(O)C5O)NC(=O)CCOCCOCCOCCOCCNC(=O)CCC(=O)N3Cc4ccccc4C#Cc4ccccc43)C(C)C)cc2)O1` (stereo partly shown) [Ex59, DIBAC-suc-PEG4-dLys(COT-CD)-vcPAB-1h]: the solubility at 10 min in data set [2] (setting [5]) worked out at 26 µg/mL (≈ 9.64 µM); in data set [2] (setting [6]) it was 26 µg/mL (≈ 9.64 µM); in data set [2] (water, thermodynamic from solid, water, read-out: Solubility), 26 µg/mL (≈ 9.64 µM). The capB in data set [3] turned out to be 29%. Further, in data set [3], the “CapB (%)” value is “% (% ≤50 CapB (%))”. The “Percent of payload released at 4 hrs” value in data set [4] came to 28.9%.

For `CCCC1O[C@@H]2C[C@H]3[C@@H]4C[C@H](F)C5=CC(=O)C=C[C@]5(C)[C@@]4(F)[C@@H](O)C[C@]3(C)[C@]2(C(=O)CNC(=O)OCc2ccc(NC(=O)[C@H](CCCNC(N)=O)NC(=O)[C@@H](NC(=O)CCOCCOCCOCCOCCNC(=O)CCC(=O)N3Cc4ccccc4C#Cc4ccccc43)C(C)C)cc2)O1` (stereo partly shown) [Ex58, DIBAC-suc-PEG4-vcPAB-1h], in data set [2] (setting [5]), the solubility at 10 min is under 20 µg/mL. Also, the solubility at 10 min in data set [2] (setting [6]) is under 20 µg/mL. Moreover, in data set [3], the capB is given as 20.8% and the “CapB (%)” value is “% (% ≤50 CapB (%))”. In addition, the “Percent of payload released at 4 hrs” value in data set [4] is recorded as 7.5-17.2%.

As a reminder, the solubility (thermodynamic) is the concentration in solution at equilibrium with solid. For the compound `CC(C)[C@H](NC(=O)[C@@H](CCCCNC(=O)COC1CCCCCc2c1nnn2CC1OC2OC3C(CO)OC(OC4C(CO)OC(OC5C(CO)OC(OC6C(CO)OC(OC7C(CO)OC(OC1C(O)C2O)C(O)C7O)C(O)C6O)C(O)C5O)C(O)C4O)C(O)C3O)NC(=O)CCOCCOCCOCCOCCNC(=O)CCC(=O)N1Cc2ccccc2C#Cc2ccccc21)C(=O)N[C@@H](C)C(=O)Nc1ccc2c(c1)[C@@]1(C)CCC[C@](C)(C(=O)NC(=O)[C@@]3(C)CCC[C@]4(C)c5cc(O)ccc5CC[C@@H]34)[C@@H]1CC2` (stereo partly shown) [Ex49], in data set [2] (10 min), the “Concentration (mM) of saturated solution” value is 0.019 mM and the Solubility is 0.05 mg/ mL mg/mL. The thermodynamic solubility at 10 min in data set [2] (water, thermodynamic from solid) was determined as 48 µg/mL (≈ 19 µM). This compound gave a solubility at 10 min in data set [2] (setting [7]) of 50 µg/mL (≈ 19.8 µM). The amount in solution in data set [2] (setting [8]) (solubility at 10 min) came to 50 µg/mL (≈ 19.8 µM). Further, in data set [3], the capB turned out to be 38.5% [1] and the “CapB (%)” value is on record as “% % (60< % % ≤70 CapB (%))”. Moreover, the “Percent of payload released at 4 hrs” value in data set [4] was 38.5%.

As to `CC(C)[C@H](NC(=O)CCOCCOCCOCCOCCNC(=O)CCC(=O)N1Cc2ccccc2C#Cc2ccccc21)C(=O)N[C@@H](C)C(=O)Nc1ccc2c(c1)[C@@]1(C)CCC[C@](C)(C(=O)NC(=O)[C@@]3(C)CCC[C@]4(C)c5cc(O)ccc5CC[C@@H]34)[C@@H]1CC2` [Ex48, 1-(4-{2-Azatricyclo[10.4.0.0^4,9]hexadeca-1(12),4(9),5,7,13,15-hexaen-10-yn-2-yl}-4-oxobutanamido)-N-[(1S)-1-{[(1 S)-1-{[(4bS,8S,8aR)-8-{[(1S,4aS,10aR)-6-hydroxy-1,4a-dimethyl-1,2,3,4,4a,9,10,10a-octahydrophenanthrene-1-carbonyl]carbamoyl}-4b,8-dimethyl-4b,5,6,7,8,8a,9,10-octahydrophenanthren-3-yl]carbamoyl}ethyl]carbamoyl}-2-methylpropyl]-3,6,9,12-tetraoxapentadecan-15-amide], the Solubility in data set [2] (10 min) is on record as under 0.1 mg/ mL mg/mL. In addition, the solubility at 10 min in data set [2] (setting [7]) was under 100 µg/mL. Moreover, the solubility at 10 min in data set [2] (setting [8]) was under 100 µg/mL. In addition, in data set [3], the “Cathepsin B cleavage rate” value was found to be 62%, the capB was found to be 13.6% and the “CapB (%)” value was “% (% ≤50 CapB (%))”. Besides, the “Percent of payload released at 4 hrs” value in data set [4] is given as 13.6%.
